What was measured:
TrkB:PLCγ1 [1] = biological target: T1, TrkB:PLCγ1 (Mus musculus, UniProt P15209); assay: TrkB:PLCγ1 interaction in PFC and hippocampus after single LSD injection (ELISA, co-immunoprecipitation); type: in vivo; settings: WT mice, single administration
T1 construct: from tissue; host or cells: prefrontal cortex and hippocampus of adult mice
Protocol: (§1) The phosphorylation of TrkB (pY816) and interaction with PLCγ1 were assessed by enzyme-linked immunosorbent assay (ELISA) as previously described[11],[80],[81] with minor modifications. Briefly, white 96-well plates (PerkinElmer, OptiPlate 96F-HB) were precoated with goat anti-TrkB (R&D systems, AF1494; 1:500, overnight, 4 °C) antibody in carbonate buffer (pH 9.8) and blocked with 3% BSA in PBS with 0.1% Tween-20 (PBS-T) for 2 h at room temperature. […] Samples were incubated overnight at 4 °C, and 24 h later plates were washed with PBS-T and incubated with either rabbit anti-phospho-TrkB(Tyr816) (Cell Signaling Technology, 4168S; 1:2,000), rabbit anti-PLCγ1 (Cell Signaling Technologies, 5690S; 1:2,000) or rabbit anti-Trk (Cell Signaling Technologies, 92991; 1:2,000) antibodies overnight at 4 °C. After washing with PBS-T, plates were incubated with HRP-conjugated goat anti-rabbit (Bio-Rad, 170–5046; 1:5,000, 1 h, room temperature) antibody, followed by more washing with PBS-T. Finally, the chemiluminescent signal was read after brief incubation with Pierce ECL substrate (Thermo Fisher Scientific, 32106). Luminescence from blank wells that contained all reagents but the sample lysates was used to determine background signal. […]

TrkB:PLCγ1 [2] = biological target: T2, TrkB:PLCγ1 (Mus musculus, UniProt P15209, Y433F); assay: as above; type: in vivo; settings: Y433F^+/− mice
T2 construct: from tissue; host or cells: prefrontal cortex and hippocampus of adult mice
T2 sequence (P15209 32-821 Y433F): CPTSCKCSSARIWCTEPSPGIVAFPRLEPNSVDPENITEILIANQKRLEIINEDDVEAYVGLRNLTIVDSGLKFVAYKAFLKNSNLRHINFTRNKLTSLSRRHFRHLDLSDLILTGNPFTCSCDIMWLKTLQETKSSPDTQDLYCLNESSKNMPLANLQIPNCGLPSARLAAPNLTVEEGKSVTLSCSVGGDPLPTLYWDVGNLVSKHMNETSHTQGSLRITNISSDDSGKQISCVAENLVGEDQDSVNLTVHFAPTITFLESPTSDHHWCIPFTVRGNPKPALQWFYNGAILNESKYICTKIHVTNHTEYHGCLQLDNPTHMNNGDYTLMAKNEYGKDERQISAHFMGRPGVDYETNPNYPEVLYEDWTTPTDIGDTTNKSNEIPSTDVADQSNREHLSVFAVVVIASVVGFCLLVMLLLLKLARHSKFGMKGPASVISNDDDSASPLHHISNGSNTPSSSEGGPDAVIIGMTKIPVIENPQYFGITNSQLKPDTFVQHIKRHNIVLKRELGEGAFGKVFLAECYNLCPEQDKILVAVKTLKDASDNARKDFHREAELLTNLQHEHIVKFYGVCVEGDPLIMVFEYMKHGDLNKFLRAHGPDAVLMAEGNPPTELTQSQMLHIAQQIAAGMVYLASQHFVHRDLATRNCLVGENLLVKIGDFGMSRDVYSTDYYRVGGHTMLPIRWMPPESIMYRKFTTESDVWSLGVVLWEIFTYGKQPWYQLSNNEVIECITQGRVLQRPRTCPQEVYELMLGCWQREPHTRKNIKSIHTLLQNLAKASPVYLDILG
T2 sequence (P15209 32-821, stated change not applied): as the sequence (P15209 32-821 Y433F) above, with F402Y counted along it
Protocol: as §1

mice = assay: Contextual fear conditioning, extinction and fear reinstatement (incl. baseline locomotor activity); type: in vivo, mouse; settings: for Mean, figure 7k (contextual fear conditioning) / Mean, figure 7i (contextual fear conditioning) / Mean, figure 7j (contextual fear conditioning): LSD group; for Mean Diff., ext fig 7e: e7e; for Mean Diff., ext fig 7f: e7f; for Mean Diff., ext fig 7o: e7o, Bonferroni's multiple comparisons test
Protocol: Male WT mice (C57BL/6JRccHsd, Envigo) were used for contextual fear conditioning experiments with and without extinction training as previously described[11],[34] with modifications. Briefly, animals were conditioned in context A (metallic bar flooring, transparent Plexiglass walls, 23 × 23 × 35 cm arena) with a series of five scrambled foot shocks (0.6 mA, 2 s) along a 480 s session. […] During the following 3 days, mice were exposed to extinction training in context A for 480 s every 24 h or placed for the same duration and number of sessions in context B (black planar floor, black nontransparent walls, 23 × 23 × 35 cm arena), which we categorized as extinction and no extinction trainings, respectively. Afterwards, animals were placed back into their home cage and left undisturbed for 3 weeks. Finally, all mice were reconditioned with a new set of five scrambled foot shocks (0.6 mA, 2 s) along a 480 s session in context A, and their fear reinstatement response was measured 24 h later for the same duration also in context A. All sessions were conducted under constant illumination (100 lux). For the contextual fear conditioning and fear reinstatement experiment with male WT and Y433F^+/−, we used the same protocol as for animals undergoing extinction training in context A above. Baseline freezing was established during the first conditioning session. Movement was measured by infrared beams placed on the sides of the conditioning chamber, and freezing was automatically determined by the fear conditioning apparatus and software (TSE Systems) and expressed as the percentage of time spent freezing.

[3] = WT:Saline vs. WT:LSD, uncorrected Fisher's LSD
[4] = Y433F+/-:Saline vs. Y433F+/-:LSD, uncorrected Fisher's LSD
[5] = WT mice, saline minus LSD, uncorrected Fisher's LSD
[6] = Y433F+/- mice, saline minus LSD, uncorrected Fisher's LSD
[7] = means over WT and Y433F+/- mice

T1 sequence (P15209 32-821): as the sequence (P15209 32-821 Y433F) above, with F402Y counted along it

## CCN(CC)C(=O)C1C=C2c3cccc4[nH]cc(c34)CC2N(C)C1 (stereo not drawn) [LSD, lysergic acid diethylamide]
TrkB:PLCγ1 [1]
  TrkB:PLCγ1 interaction: increases TrkB:PLCγ1 interaction
TrkB:PLCγ1 [2]
  TrkB:PLCγ1 interaction: these effects are impaired
mice; [3]
  Mean Diff., Fig. 7i: 14.87
  Mean Diff., Fig. 7j: 16.98
  Mean Diff., ext fig 7e: -2.065
  Mean Diff., ext fig 7f: -1.252
mice; [4]
  Mean Diff., Fig. 7i: -1.67
  Mean Diff., Fig. 7j: -1.138
  Mean Diff., ext fig 7e: -2.882
  Mean Diff., ext fig 7f: -6.692
mice; Ext.:Saline vs. Ext.:LSD, uncorrected Fisher's LSD
  Mean Diff., Fig. 7k: 21.67
mice; No ext.:Saline vs. No ext.:LSD, uncorrected Fisher's LSD
  Mean Diff., Fig. 7k: 7.778
mice; Ext. (extinction training)
  Mean, figure 7k (contextual fear conditioning): 20.42
mice; Ext., saline minus LSD, uncorrected Fisher's LSD
  Mean Diff., figure 7k, Ext.:Saline vs. Ext.:LSD: 21.67
mice; LSD alone, no extinction training
  fear extinction without extinction training: does not bring about fear extinction
mice; No ext.
  Mean, figure 7k (contextual fear conditioning): 44.56
mice; No ext., saline minus LSD, uncorrected Fisher's LSD
  Mean Diff., figure 7k, No ext.:Saline vs. No ext.:LSD: 7.778
mice; WT mice, 72 h after single administration, persists at least 4 weeks, with extinction training
  contextual extinction of conditioned fear response: facilitates contextual extinction of conditioned fear response
mice; WT mice
  Mean, figure 7i (contextual fear conditioning): 20.6
  Mean, figure 7j (contextual fear conditioning): 39.47
mice; [5]
  Mean Diff., figure 7i, WT:Saline vs. WT:LSD: 14.87
  Mean Diff., figure 7j, WT:Saline vs. WT:LSD: 16.98
mice; Y433F+/- mice
  Mean, figure 7i (contextual fear conditioning): 34.18
  Mean, figure 7j (contextual fear conditioning): 54.05
mice; [6]
  Mean Diff., figure 7i, Y433F+/-:Saline vs. Y433F+/-:LSD: -1.67
  Mean Diff., figure 7j, Y433F+/-:Saline vs. Y433F+/-:LSD: -1.138
mice; Y433F^+/− mice
  contextual extinction of conditioned fear response: these short- and long-term effects are lost
mice; Ext.:Saline vs. Ext.:LSD
  Mean Diff., ext fig 7o: 6.343
mice; No ext.:Saline vs. No ext.:LSD
  Mean Diff., ext fig 7o: -0.7639
mice; mean over WT and Y433F+/- mice
  Predicted (LS) mean of LSD, figure 7i: 27.39
  Predicted (LS) mean of LSD, figure 7j: 46.76
mice; [7]
  Difference between predicted means (Saline - LSD), figure 7i: 6.598
  Difference between predicted means (Saline - LSD), figure 7j: 7.923

— PMC10244169, “Psychedelics promote plasticity by directly binding to BDNF receptor TrkB” (Nature Neuroscience, 2023)
